Assays:
pSmad2/Smad2 = assay: Alveolar pSmad2/Smad2 in BAL, 80 mg and 160 mg QD (FIG. 10); type: in vivo, human; details: 80 mg and 160 mg QD (Part 1), p<0.0001
Protocol: Alveolar pSmad2/Smad2 percentage change from baseline at 24 h (Part 1: 80 mg and 160 mg). […] BAL—bronchoalveolar lavage; pSmad2/Smad2—ratio of phosphorylated Smad2 to total Smad2; QD—once daily.

[1] = Unbound plasma concentration in the PET study; type: in vivo, human; details: IPF
Protocol: (§1) This Example was conducted as an open-label, single-dose (60 mg, 120 mg, 240 mg or 320 mg) clinical trial evaluating αVβ6 receptor occupancy in the lungs, safety, and pharmacokinetics of Compound 5 in subjects with IPF. Knottin tracer uptake kinetics were compared pre- and post-dose of the disclosed compound, as measured by standardized uptake values (SUVs) and parameters estimated from kinetic modeling in regions-of-interest on dynamic [^18F]FP-R01-MG-F2 PET/CT scans. […] Receptor occupancy was estimated from the output of the two-compartment model (VT, the volume of labeled tissue) using standard equations and fitting algorithms, and corrections for VND (non-displaceable tracer binding). For example, in FIG. 8, the data points, shown as circles, are modeled by the following formula: […]
(§2) Five subjects with IPF were enrolled: Subject A received a single dose of 60 mg of the disclosed compound followed by a post-dose scan. Subject B received two doses of the disclosed compound separated by two weeks, 120 mg and 240 mg, each followed by a post-dose scan. Subject C received two doses of the disclosed compound separated by two weeks, 240 mg and 320 mg, each followed by a post-dose scan. Subject D received a single dose of 320 mg of the disclosed compound followed by a post-dose scan.

lung collagen = assay: Murine bleomycin model, collagen deposition; type: in vivo, mice (C57BL/6); details: bleomycin mice
Protocol: Mice (C57BL/6) were divided into healthy (n=15), vehicle-treated (n=15), and test article-treated (n=15 per dose) groups. Mice in the vehicle and test article-treated groups were administered 3 U/kg of bleomycin (Teva Pharmaceuticals; North Wales, PA) via oropharyngeal aspiration while under anesthesia on day 0. Healthy animals were administered water in a similar fashion. Starting on day 7, mice in the control group were administered PBS vehicle, 130 μL, by oral gavage, BID for 14 days. Also starting on day 7, mice in the test group were administered compound 5 in PBS by oral gavage, BID for 14 days, at relative dosages of 1×, 2.5× and 5×. […] From day 14 through day 21, 9 of the 15 mice were administered ^2H2O for labeling. All mice were sacrificed on day 21 and tissues were collected. Samples were prepared for analysis either directly from lung tissue, or by bronchoalveolar lavage, which washes out the bronchiolar and alveolar space with saline to produce a bronchoalveolar lavage fluid (BALF) in which 80-90% of cells are alveolar macrophages.
FIGS. 2F, 2G, and 2H show high resolution second harmonic generation images of fibrillar collagen (collagen type I and III) taken from formalin-fixed paraffin embedded lung tissue sections from a healthy mouse lung (2F), a vehicle-treated mouse lung (2G) and a test-article treated mouse lung (2H; 500 mg/kg BID). Color scale is indicative of collagen fiber density (red=most dense; blue=least dense).
FIG. 2I is a graph showing the percent total collagen area in the second harmonic generation mouse lung images. Large structural areas of collagen found similarly in healthy and fibrotic tissues (dense collagen fibers surrounding airways were excluded from this analysis to focus on interstitial fibrotic collagen). […] The 1×, 2.5×, and 5× dosages were at the same absolute values in mg/kg as in Example B2.

αVβ6 = target: T1, αVβ6 (Homo sapiens, UniProt P06756+P18564); assay: αVβ6 target engagement in IPF lungs, [18F]FP-R01-MG-F2 PET/CT; type: in vivo; set-up: key to Vt: VT = volume of labeled tissue, from two-compartment kinetic model; key to Vs (corrected for non-displaceable binding, VND = 0.66): VT corrected for non-displaceable tracer binding (VND)
T1 construct: evaluating αVβ6 receptor occupancy in the lungs; from tissue; host or cells: lungs of living participants with IPF (in vivo PET/CT)
Protocol: The aim of this Example is to assess target engagement of the disclosed compounds to αVβ6 in participants with IPF using [^18F]FP-R01-MG-F2 PET/computerized tomography (CT) imaging.
as §1, §2

COL1A1 expression = assay: Precision cut lung slices from human IPF explants, COL1A1 expression; type: cell-based
Description: Explanted lung tissue was obtained from human IPF subjects and inflated with agarose as described in the preceding examples. Biopsy cores were obtained from the agarose-inflated lung tissue. The biopsy cores were subjected to precision slicing to obtain several hundred μm thick. Individual slices were distributed in a multiwell culture plate and cultured for […] under control (DMSO) and test compound conditions. The viability of the slices over the course of culturing was confirmed by WST-1 assay of mitochondrial activity.
PCLS from 5-7 idopathic pulmonary fibrosis (IPF) lung tissue samples were cultured for seven days with one of: DMSO; Compound 5 at 200 nM; nintedanib at 75 nM; pirfenidone at 50 μm; a combination of Compound 5 at 200 nM and nintedanib at 75 nM; a combination of Compound 5 at 200 nM and pirfenidone at 50 μm; or an Alk5 inhibitor at 1 μm. […] FIG. 4D is a bar graph showing relative expression of COL1A1 in precision cut lung slices (PCLS) from idopathic pulmonary fibrosis (IPF) lung tissue upon exposure to Compound 5, clinical standard of care compounds nintedanib (Nin) and pirfenidone (Pirf), and an ALK5 inhibitor, all versus DMSO control.
PCLS from a single IPF lung tissue sample were cultured for seven days with Compound 5 at concentrations of 200 μM, 2 nM, 60 nM, 200 nM, and 1 μM, along with 0.1% DMSO control and an Alk5 inhibitor at 1 μM. […] COL1A1 expression is also graphed for the PCLS in the presence of 0.1% DMSO control, and an Alk5 inhibitor at 1 μM.

T1 sequence (P06756 31-889 limits assumed): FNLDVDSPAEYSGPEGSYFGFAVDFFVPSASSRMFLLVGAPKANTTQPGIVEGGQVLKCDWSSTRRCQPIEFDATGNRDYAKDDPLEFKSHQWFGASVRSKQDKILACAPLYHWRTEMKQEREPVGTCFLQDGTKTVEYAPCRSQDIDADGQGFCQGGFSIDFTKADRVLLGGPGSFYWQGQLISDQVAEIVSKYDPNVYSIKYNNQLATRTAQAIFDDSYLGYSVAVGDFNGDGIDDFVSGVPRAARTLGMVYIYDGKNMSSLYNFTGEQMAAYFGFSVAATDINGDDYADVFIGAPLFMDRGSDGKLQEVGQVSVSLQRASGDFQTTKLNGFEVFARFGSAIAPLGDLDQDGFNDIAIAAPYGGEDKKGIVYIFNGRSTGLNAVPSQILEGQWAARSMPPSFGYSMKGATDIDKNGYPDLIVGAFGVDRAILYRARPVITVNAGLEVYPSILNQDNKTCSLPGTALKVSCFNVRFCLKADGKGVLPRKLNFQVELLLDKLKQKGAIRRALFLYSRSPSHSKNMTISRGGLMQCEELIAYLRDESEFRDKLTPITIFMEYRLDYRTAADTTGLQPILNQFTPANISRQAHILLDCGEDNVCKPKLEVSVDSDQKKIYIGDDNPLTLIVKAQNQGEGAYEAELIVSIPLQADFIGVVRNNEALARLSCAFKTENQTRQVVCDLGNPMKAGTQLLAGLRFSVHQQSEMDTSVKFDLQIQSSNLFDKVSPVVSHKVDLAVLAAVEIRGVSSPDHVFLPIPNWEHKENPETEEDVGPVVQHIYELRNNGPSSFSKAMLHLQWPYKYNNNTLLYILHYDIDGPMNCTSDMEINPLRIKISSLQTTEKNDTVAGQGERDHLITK
T1 sequence (P06756 891-1048 partner limits assumed): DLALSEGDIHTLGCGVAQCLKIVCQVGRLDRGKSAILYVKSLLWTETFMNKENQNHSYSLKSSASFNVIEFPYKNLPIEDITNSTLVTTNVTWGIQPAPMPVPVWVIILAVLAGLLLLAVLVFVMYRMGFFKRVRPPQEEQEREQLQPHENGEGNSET
T1 sequence (P18564 22-788): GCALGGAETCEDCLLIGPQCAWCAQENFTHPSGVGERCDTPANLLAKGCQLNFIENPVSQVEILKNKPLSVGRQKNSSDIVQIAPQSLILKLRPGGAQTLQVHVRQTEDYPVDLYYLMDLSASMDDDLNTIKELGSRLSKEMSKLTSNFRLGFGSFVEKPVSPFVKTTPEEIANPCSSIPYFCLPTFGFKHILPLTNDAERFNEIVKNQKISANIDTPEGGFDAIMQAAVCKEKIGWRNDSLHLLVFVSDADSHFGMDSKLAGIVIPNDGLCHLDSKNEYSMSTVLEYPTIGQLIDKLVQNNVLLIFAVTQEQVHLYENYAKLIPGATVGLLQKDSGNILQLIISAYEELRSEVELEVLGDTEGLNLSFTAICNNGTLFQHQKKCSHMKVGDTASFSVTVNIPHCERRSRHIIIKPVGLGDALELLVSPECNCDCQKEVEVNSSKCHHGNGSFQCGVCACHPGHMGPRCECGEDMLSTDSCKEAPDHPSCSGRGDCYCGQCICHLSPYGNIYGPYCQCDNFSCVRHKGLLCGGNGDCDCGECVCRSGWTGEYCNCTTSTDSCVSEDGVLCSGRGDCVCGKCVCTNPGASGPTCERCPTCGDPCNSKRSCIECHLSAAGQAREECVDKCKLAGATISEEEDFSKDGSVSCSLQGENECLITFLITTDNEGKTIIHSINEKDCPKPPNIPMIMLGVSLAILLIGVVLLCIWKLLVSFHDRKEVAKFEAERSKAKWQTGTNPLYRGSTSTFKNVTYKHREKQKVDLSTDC

COCCN(CCCCc1ccc2c(n1)NCCC2)CC[C@H](Nc1ncnc2ccccc12)C(=O)O [Compound 5, (S)-4-((2-methoxyethyl)(4-(5,6,7,8-tetrahydro-1,8-naphthyridin-2-yl)butyl)amino)-2-(quinazolin-4-ylamino)butanoic acid]
Alveolar pSmad2/Smad2 percentage change from baseline at 24 h vs. placebo (pSmad2/Smad2): statistically significant at both doses | Conc (Unbound Plasma Concentration) ([1]; Subject A, single 60 mg dose): 3.66 nM | Conc (Unbound Plasma Concentration) ([1]; Subject B, 120 mg dose): 10 nM | Conc (Unbound Plasma Concentration) ([1]; Subject B, 240 mg dose two weeks after 120 mg): 58.3 nM | Conc (Unbound Plasma Concentration) ([1]; Subject C, 240 mg dose): 103 nM | Conc (Unbound Plasma Concentration) ([1]; Subject D, single 320 mg dose): 33.6 nM | accumulated new collagen (percentage of lung collagen containing 2H-labeled hydroxyproline) (lung collagen; 1× and 5× BID, FIG. 2D): dose-dependent reduction | total pulmonary collagen (μg of hydroxyproline) (lung collagen; 1×, […], 5× BID, FIG. 2E): reduction in total pulmonary collagen | total collagen area in second harmonic generation images (lung collagen; 1×, […], 5× BID, FIG. 2I): substantial, statistically significant dose-dependent reduction | decrease of the volume of distribution of the knottin radiotracer in the lungs (αVβ6; 60 mg dose): approximately 50% | decrease of the volume of distribution of the knottin radiotracer in the lungs (αVβ6; 240 and 320 mg doses): greater than 95% | Receptor occupancy (αVβ6; IPF lungs, at pharmacologically relevant plasma concentrations): > 95% | Vs (corrected for non-displaceable binding, VND = 0.66) (αVβ6; Subject A, 60 mg, post-dose scan (baseline Vs 2.47)): 1.18 | Vt (αVβ6; Subject A, 60 mg, post-dose scan (baseline Vt 3.13)): 1.84 | % DeltaVt (αVβ6; Subject B, 120 mg): 59.76% | Vs (corrected for non-displaceable binding, VND = 0.66) (αVβ6; Subject B, 120 mg, post-dose scan (baseline Vs 2.48)): 0.99 | Vt (αVβ6; Subject B, 120 mg, post-dose scan (baseline Vt 3.12)): 1.65 | Vs (corrected for non-displaceable binding, VND = 0.66) (αVβ6; Subject B, 240 mg, post-dose scan (baseline Vs 2.46)): 0.06 | Vt (αVβ6; Subject B, 240 mg, post-dose scan (baseline Vt 3.12)): 0.72 | Vs (corrected for non-displaceable binding, VND = 0.66) (αVβ6; Subject C, 240 mg, post-dose scan (baseline Vs 1.1)): 0,32 | Vt (αVβ6; Subject C, 240 mg, post-dose scan (baseline Vt 1.76)): 0.98 | Vs (corrected for non-displaceable binding, VND = 0.66) (αVβ6; Subject C, 320 mg, post-dose scan (baseline Vs 1.1)): 0.19 | Vt (αVβ6; Subject C, 320 mg, post-dose scan (baseline Vt 1.76)): 0.85 | Vs (corrected for non-displaceable binding, VND = 0.66) (αVβ6; Subject D, 320 mg, post-dose scan (baseline Vs 1.4)): 0.09 | Vt (αVβ6; Subject D, 320 mg, post-dose scan (baseline Vt 2.06)): 0.75 | concentration at which the exposure response saturates (αVβ6; measured drug exposure at 4 hours, approaching 100% receptor occupancy): about 100 nM | lung Col1a1 expression, normalized to DMSO control slices (COL1A1 expression; human IPF slices, 3 days, 3G9 ≥400 ng/mL, compound 5 179 nM, ALK5 inhibitor 1 μM, FIG. 4C): substantial, statistically significant (p<0.01 vs vehicle) decrease | COL1A1 expression, concentration dependence (COL1A1 expression; single IPF sample, seven days, 200 μM, 2 nM, 60 nM, 200 nM, 1 μM, FIG. 4E): dose dependent reduction

Source: patent publication US20240350494A1, “THERAPEUTIC MODULATION OF INTEGRINS” (Pliant Therapeutics, Inc., priority 2021, published 2024)
